Our source for the Ki values is ChEMBL document CHEMBL1154296, “Potent inhibitors of beta-tryptase and human leukocyte elastase based on the MCoTI-II scaffold” (J Med Chem, 2009).

Test [1] can be described thus: Inhibition of trypsin by substrate hydrolysis based fluorescence assay.
A short description of test [2]: Inhibition of tryptase by substrate hydrolysis based fluorescence assay.
The target in the next test is T1, Neutrophil elastase (Homo sapiens, UniProt P08246).
T1 sequence (P08246 whole entry): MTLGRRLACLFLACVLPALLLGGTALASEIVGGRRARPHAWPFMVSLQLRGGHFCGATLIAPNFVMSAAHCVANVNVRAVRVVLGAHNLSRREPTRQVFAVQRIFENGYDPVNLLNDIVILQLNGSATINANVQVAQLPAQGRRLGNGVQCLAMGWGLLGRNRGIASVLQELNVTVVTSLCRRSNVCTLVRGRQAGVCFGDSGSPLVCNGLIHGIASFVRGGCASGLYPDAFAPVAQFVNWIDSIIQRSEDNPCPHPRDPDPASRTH
Briefly: Inhibition of human leukocyte elastase by substrate hydrolysis based fluorescence assay.

SMILES strings stand for the structures. Starred links: 1 amine or outer side, 2 acyl side, 3 side chain; linkers in the order of their positions; H or OH if unused. Positions of bridges follow the written chain, without caps; N, C: chain ends. Non-standard residues stand in square brackets, D forms with d. Residues, ends and D or L forms follow the SMILES beside them. X2 = N=C(N)NCCC[C@@H](C(=O)[C@H](CCC(N)=O)N[*:1])C(=O)[*:2]; X1 = NCCCC[C@@H](C(=O)[C@H](CCCCN)N[*:1])C(=O)[*:2] Bounds are passed on as bounds.

A word on the Ki: it is a measure of affinity in units of concentration, obtained from inhibition or displacement.

Turning to `CC[C@H](C)[C@@H]1NC(=O)[C@H](C)NC(=O)[C@@H]2CCCN2C(=O)[C@@H]2CSSC[C@@H]3NC(=O)[C@H](C)NC(=O)CNC(=O)[C@@H]4CCCN4C(=O)[C@@H]4CSSC[C@H](NC(=O)[C@H](Cc5ccc(O)cc5)NC(=O)CNC(=O)[C@H](CC(N)=O)NC(=O)CNC(=O)[C@H](CCCNC(=N)N)NC(=O)[C@H](CSSC[C@H](NC(=O)[C@@H](CCCNC(=N)N)C(=O)[C@H](CCC(N)=O)NC(=O)[C@H](CC(C)C)NC1=O)C(=O)N[C@@H](CCCNC(=N)N)C(=O)N[C@@H](CCCNC(=N)N)C(=O)N[C@@H](CC(=O)O)C(=O)N[C@@H](CO)C(=O)N[C@@H](CC(=O)O)C(=O)N4)NC(=O)[C@H]([C@@H](C)CC)NC3=O)C(=O)NCC(=O)N[C@@H](CO)C(=O)NCC(=O)N[C@@H](CO)C(=O)N[C@@H](CC(=O)O)C(=O)NCC(=O)NCC(=O)N[C@@H](C(C)C)C(=O)N2` (cyclo(ACICRGNGYCGSGSDGGVCPAIL[X2]CRRDSDCPG); disulfide 2-19, 4-25, 10-31), the Ki in test [1] is above 0.109 nM; in test [2] it was above 50000 nM; at Neutrophil elastase (read-out: Ki) it was 32 nM.

In the case of `CC[C@H](C)[C@@H]1NC(=O)[C@@H]2CSSC[C@@H]3NC(=O)[C@H](C(C)C)NC(=O)CNC(=O)CNC(=O)[C@H](CC(=O)O)NC(=O)[C@H](CO)NC(=O)CNC(=O)[C@H](CO)NC(=O)CNC(=O)[C@@H]4CSSC[C@H](NC(=O)[C@H](CC(=O)O)NC(=O)[C@H](CO)NC(=O)[C@H](CC(=O)O)NC(=O)[C@H](CCCNC(=N)N)NC(=O)[C@H](CCCNC(=N)N)NC(=O)[C@H](CSSC[C@H](NC1=O)C(=O)N[C@@H](CCCNC(=N)N)C(=O)NCC(=O)N[C@@H](CC(N)=O)C(=O)NCC(=O)N[C@@H](Cc1ccc(O)cc1)C(=O)N4)NC(=O)[C@@H](CCCNC(=N)N)C(=O)[C@H](CCC(N)=O)NC(=O)[C@H](CC(C)C)NC(=O)[C@H]([C@@H](C)CC)NC(=O)[C@H](CCC(N)=O)NC(=O)[C@@H]1CCCN1C3=O)C(=O)N1CCC[C@H]1C(=O)NCC(=O)N[C@@H](C)C(=O)N2` (cyclo(ACICRGNGYCGSGSDGGVCPQIL[X2]CRRDSDCPG); disulfide 2-19, 4-25, 10-31), the results for the Ki (in test [1]; in test [2]; at Neutrophil elastase) were above 0.106 nM, above 50000 nM and “Not Active”, respectively.

For `CC[C@H](C)[C@@H]1NC(=O)[C@@H]2CSSC[C@@H]3NC(=O)[C@H](C(C)C)NC(=O)CNC(=O)CNC(=O)[C@H](CC(=O)O)NC(=O)[C@H](CO)NC(=O)CNC(=O)[C@H](CO)NC(=O)CNC(=O)[C@@H]4CSSC[C@H](NC(=O)[C@H](CC(=O)O)NC(=O)[C@H](CO)NC(=O)[C@H](CC(=O)O)NC(=O)[C@H](CCCNC(=N)N)NC(=O)[C@H](CCCNC(=N)N)NC(=O)[C@H](CSSC[C@H](NC1=O)C(=O)N[C@@H](CCCNC(=N)N)C(=O)NCC(=O)N[C@@H](CC(N)=O)C(=O)NCC(=O)N[C@@H](Cc1ccc(O)cc1)C(=O)N4)NC(=O)[C@@H](CCCCN)C(=O)[C@H](CCCCN)NC(=O)[C@H](CC(C)C)NC(=O)[C@H]([C@@H](C)CC)NC(=O)[C@H](CCCCN)NC(=O)[C@@H]1CCCN1C3=O)C(=O)N1CCC[C@H]1C(=O)NCC(=O)N[C@@H](C)C(=O)N2` (cyclo(ACICRGNGYCGSGSDGGVCPKIL[X1]CRRDSDCPG); disulfide 2-19, 4-25, 10-31), the Ki in test [1] was 0.075 nM; in test [2], 600 nM; on Neutrophil elastase, “Not Active”.

As for `CC[C@H](C)[C@@H]1NC(=O)[C@@H]2CSSC[C@@H]3NC(=O)[C@H](C(C)C)NC(=O)CNC(=O)CNC(=O)[C@H](CC(=O)O)NC(=O)[C@H](CO)NC(=O)CNC(=O)[C@H](CO)NC(=O)CNC(=O)[C@@H]4CSSC[C@H](NC(=O)[C@H](CC(=O)O)NC(=O)[C@H](CO)NC(=O)[C@H](CC(=O)O)NC(=O)[C@H](CCCNC(=N)N)NC(=O)[C@H](CCCNC(=N)N)NC(=O)[C@H](CSSC[C@H](NC1=O)C(=O)N[C@@H](CCCNC(=N)N)C(=O)NCC(=O)N[C@@H](CC(N)=O)C(=O)NCC(=O)N[C@@H](Cc1ccc(O)cc1)C(=O)N4)NC(=O)[C@@H](CCCNC(=N)N)C(=O)[C@H](CCC(N)=O)NC(=O)[C@H](CC(C)C)NC(=O)[C@H]([C@@H](C)CC)NC(=O)[C@H](C(C)C)NC(=O)[C@@H]1CCCN1C3=O)C(=O)N1CCC[C@H]1C(=O)NCC(=O)N[C@@H](C)C(=O)N2` (cyclo(ACICRGNGYCGSGSDGGVCPVIL[X2]CRRDSDCPG); disulfide 2-19, 4-25, 10-31), the figures for the Ki (in test [1]; in test [2]; on Neutrophil elastase (read-out: Ki)) were above 0.109 nM, above 50000 nM and 21 nM, respectively.
